Earlier results, collected in patent publication US20030215917A1, “Assay for evaluation of activity of compounds against HCV using a novel detection system in the HCV replicon” (priority 2002, published 2003).

Experiments:
HCV replicon cells = details: at high concentration; stated as known
[1] = system: Hepatitis B virus (HBV), Hepatitis C virus (HCV), Yellow Fever virus, Dengue Virus, Japanese Encephalitis, West Nile virus and related flaviviruses
HCV and HCV replicon = details: stated as known

| Compound | cytotoxicity effect (HCV replicon cells) | toxicity to the host cells (host cells) | activity against viruses [1] | inhibition of the replication of the virus (viral growth) [1] | inhibition of viral replication (HCV and HCV replicon) |
| --- | --- | --- | --- | --- | --- |
| O=C1OCc2c1cc1ccc3c(c1c2-c1ccc2c(c1)OCO2)OCO3 [Helioxanthin] | known to have cytotoxicity effect at high concentration | very low toxicity | high activity | potent inhibition |  |
| interferon alpha |  |  |  |  | known to inhibit viral replication |
